We go through two compounds from patent US6054484A, “Transparent aqueous solution of diclofenac sodium and medicinal compositions with the use of the same” (Tsumura & Co., priority 1996, dated 2000).

For data set [1] the following is noted: cited from earlier work.
Data set [2] is described as follows: Solubility of drug substance in water, oil ingredients and fatty acid diethanolamide. Format: physicochemical.

In the case of `O=C(O)Cc1ccccc1Nc1c(Cl)cccc1Cl` [diclofenac sodium], the solubility in water result in data set [1] is given as “about 1.5 wt. %”. Besides, the “dissolution in coconut fatty acid diethanolamide” value in data set [2] (coconut fatty acid diethanolamide alone) was “does not dissolve”. For the same compound, in data set [2] (in oil ingredients), the “solubility in oil ingredients” value is reported as “low solubility”. Besides, the “dissolution in liquid mixture of coconut fatty acid diethanolamide with water” value in data set [2] (liquid mixture with water) was “at a high concentration and stably”.
With `COc1ccc2c(c1)c(CC(=O)O)c(C)n2C(=O)c1ccc(Cl)cc1` [indomethacin], in data set [1], the “solubility in water (in words)” value is listed as “insoluble in water”.
